Assay results published in ChEMBL document CHEMBL4138084, “Structure-activity relationship study of the tumour-targeting peptide A20FMDV2 via modification of Lys16, Leu13, and N- and/or C-terminal functionality” (Eur J Med Chem, 2017).
Active and inactive are the calls of the source. The calls are words filed in the database; no cut-off is given here.

What was measured:
[1] = tested on: Integrin alpha-V/beta-1 (Homo sapiens); test: Binding affinity alphav/beta1 integrin in human A375PPuro cells at 1000 nM after 15 mins by flow cytometric analysis
[2] = target: Integrin alpha-V/beta-8 (Homo sapiens) (UniProt P06756+P26012); test: Binding affinity alphav/beta8 integrin in human A375PPuro cells at 1000 nM after 15 mins by flow cytometric analysis; type: cell-based
[3] = target: Integrin alpha-V/beta-5 (Homo sapiens) (UniProt P06756+P18084); test: Binding affinity alphav/beta5 integrin in human A375PPuro cells at 1000 nM after 15 mins by flow cytometric analysis; type: cell-based
[4] = Drug uptake in human A375PPuro cells at 1000 nM after 15 mins by flow cytometric analysis; type: ADME, cell-based; conditions: 0.25 h, 1 µM
[5] = target: T1, Integrin alpha-V/beta-6 (Homo sapiens, UniProt P06756+P18564); test: Binding affinity to alphav/beta6 integrin in human A375Pbeta6 cells at 100 nM after 15 mins by flow cytometric analysis relative to biotinylated A20FMDV2; type: cell-based
[6] = target: T1, Integrin alpha-V/beta-6; test: Binding affinity to alphav/beta6 integrin in human A375Pbeta6 cells assessed as drug internalization at 100 nM after 15 mins by flow cytometric analysis relative to biotinylated A20FMDV2; type: ADME, cell-based; conditions: 0.25 h, 0.1 µM
Target sequence in this assay (P06756 31-889 limits assumed): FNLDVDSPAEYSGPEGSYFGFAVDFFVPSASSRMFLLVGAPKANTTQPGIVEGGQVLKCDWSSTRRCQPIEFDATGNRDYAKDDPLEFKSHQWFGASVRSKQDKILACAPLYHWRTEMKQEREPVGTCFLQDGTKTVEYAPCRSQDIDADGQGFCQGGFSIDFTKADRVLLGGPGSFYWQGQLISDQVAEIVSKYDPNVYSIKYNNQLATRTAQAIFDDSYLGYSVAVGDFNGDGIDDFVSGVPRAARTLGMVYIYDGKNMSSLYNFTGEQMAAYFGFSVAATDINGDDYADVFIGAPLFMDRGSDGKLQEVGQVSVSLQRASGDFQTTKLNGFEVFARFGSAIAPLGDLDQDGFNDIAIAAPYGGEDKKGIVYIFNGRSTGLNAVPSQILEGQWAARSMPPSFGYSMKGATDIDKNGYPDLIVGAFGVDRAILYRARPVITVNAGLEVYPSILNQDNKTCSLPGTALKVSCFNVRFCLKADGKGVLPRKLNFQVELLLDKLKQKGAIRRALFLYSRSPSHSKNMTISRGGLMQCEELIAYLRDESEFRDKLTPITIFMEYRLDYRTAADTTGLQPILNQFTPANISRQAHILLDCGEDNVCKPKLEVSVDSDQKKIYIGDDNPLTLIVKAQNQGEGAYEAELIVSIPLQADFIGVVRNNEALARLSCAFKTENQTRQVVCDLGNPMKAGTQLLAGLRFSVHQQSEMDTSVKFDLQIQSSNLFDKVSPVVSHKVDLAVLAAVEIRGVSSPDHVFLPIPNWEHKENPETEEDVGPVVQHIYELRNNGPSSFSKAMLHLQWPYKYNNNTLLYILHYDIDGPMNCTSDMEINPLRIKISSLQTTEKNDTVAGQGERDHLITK
Target sequence in this assay (P06756 891-1048 limits assumed): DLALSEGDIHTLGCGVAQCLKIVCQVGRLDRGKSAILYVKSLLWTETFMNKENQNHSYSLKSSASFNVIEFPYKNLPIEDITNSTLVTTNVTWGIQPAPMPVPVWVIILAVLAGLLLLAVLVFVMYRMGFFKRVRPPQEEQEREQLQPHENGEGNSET
Target sequence in this assay (P18564 22-788 limits assumed): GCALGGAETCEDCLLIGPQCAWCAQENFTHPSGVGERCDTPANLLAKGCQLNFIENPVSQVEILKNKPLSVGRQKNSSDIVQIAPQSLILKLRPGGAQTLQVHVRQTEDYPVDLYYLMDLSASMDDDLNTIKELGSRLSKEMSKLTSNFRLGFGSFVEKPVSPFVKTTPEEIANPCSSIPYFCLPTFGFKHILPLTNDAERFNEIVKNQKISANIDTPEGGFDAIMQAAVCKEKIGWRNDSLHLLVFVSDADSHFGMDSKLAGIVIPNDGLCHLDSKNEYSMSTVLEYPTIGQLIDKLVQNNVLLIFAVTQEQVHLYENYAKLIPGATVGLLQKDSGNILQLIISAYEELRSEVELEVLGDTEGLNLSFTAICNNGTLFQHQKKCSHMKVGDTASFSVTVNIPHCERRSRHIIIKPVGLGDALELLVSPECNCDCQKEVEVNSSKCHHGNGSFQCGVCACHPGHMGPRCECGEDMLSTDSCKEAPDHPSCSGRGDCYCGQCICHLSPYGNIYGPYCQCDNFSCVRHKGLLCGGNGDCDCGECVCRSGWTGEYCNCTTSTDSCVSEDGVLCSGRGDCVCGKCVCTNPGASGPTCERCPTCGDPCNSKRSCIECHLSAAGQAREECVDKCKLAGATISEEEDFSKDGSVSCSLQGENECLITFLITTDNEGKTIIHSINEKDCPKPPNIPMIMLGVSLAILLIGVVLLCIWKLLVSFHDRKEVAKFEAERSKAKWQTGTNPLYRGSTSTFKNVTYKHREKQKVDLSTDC

Activity [1]	Activity [2]	Activity [3]	Drug uptake [4]	fold change (FC) [5]	fold change (FC) [6]	Structure (SMILES)
–	–	–	Not Active	1.07	1.11	CC(C)C[C@H](NC(=O)[C@H](CC(=O)O)NC(=O)CNC(=O)[C@H](CCCNC(=N)N)NC(=O)[C@H](CC(C)C)NC(=O)[C@H](CC(N)=O)NC(=O)[C@@H]1CCCN1C(=O)[C@@H](NC(=O)[C@H](CCCCNC(=O)CCCC[C@@H]1SC[C@@H]2NC(=O)N[C@@H]21)NC(=O)[C@@H](N)CC(N)=O)C(C)C)C(=O)N[C@@H](CCC(N)=O)C(=O)N[C@H](C(=O)NC(C)(C)C(=O)N[C@@H](C)C(=O)N[C@@H](CCC(N)=O)C(=O)N[C@@H](CCCCN)C(=O)N[C@H](C(=O)N[C@@H](C)C(=O)N[C@@H](CCCNC(=N)N)C(=O)N[C@H](C(=O)O)[C@@H](C)O)C(C)C)C(C)C
–	–	–	Not Active	0.53	0.99	CC(C)C[C@H](NC(=O)[C@H](CC(=O)O)NC(=O)CNC(=O)[C@H](CCCNC(=N)N)NC(=O)[C@H](CC(C)C)NC(=O)[C@H](CC(N)=O)NC(=O)[C@@H]1CCCN1C(=O)[C@@H](NC(=O)[C@H](CCCCNC(=O)CCCC[C@@H]1SC[C@@H]2NC(=O)N[C@@H]21)NC(=O)[C@@H](N)CC(N)=O)C(C)C)C(=O)N[C@@H](CCC(N)=O)C(=O)N[C@H](C(=O)N[C@@H](CC(C)C)C(=O)N[C@@H](C)C(=O)N[C@@H](CCC(N)=O)C(=O)N[C@@H](CCCCN)C(=O)N[C@H](C(=O)N[C@@H](C)C(=O)N[C@@H](CCCNC(=N)N)C(=O)N[C@@H](C(=O)O)[C@H](C)O)C(C)C)C(C)C
–	–	–	Not Active	0.45	0.66	CC(C)CC[C@H](NC(=O)[C@@H](NC(=O)[C@H](CCC(N)=O)NC(=O)[C@H](CC(C)C)NC(=O)[C@H](CC(=O)O)NC(=O)CNC(=O)[C@H](CCCNC(=N)N)NC(=O)[C@H](CC(C)C)NC(=O)[C@H](CC(N)=O)NC(=O)[C@@H]1CCCN1C(=O)[C@@H](NC(=O)[C@H](CCCCNC(=O)CCCC[C@@H]1SC[C@@H]2NC(=O)N[C@@H]21)NC(=O)[C@@H](N)CC(N)=O)C(C)C)C(C)C)C(=O)N[C@@H](C)C(=O)N[C@@H](CCC(N)=O)C(=O)N[C@@H](CCCCN)C(=O)N[C@H](C(=O)N[C@@H](C)C(=O)N[C@@H](CCCNC(=N)N)C(=O)N[C@H](C(=O)O)[C@@H](C)O)C(C)C
–	–	–	Not Active	1.16	1.15	CCCC[C@H](NC(=O)[C@@H](NC(=O)[C@H](CCC(N)=O)NC(=O)[C@H](CC(C)C)NC(=O)[C@H](CC(=O)O)NC(=O)CNC(=O)[C@H](CCCNC(=N)N)NC(=O)[C@H](CC(C)C)NC(=O)[C@H](CC(N)=O)NC(=O)[C@@H]1CCCN1C(=O)[C@@H](NC(=O)[C@H](CCCCNC(=O)CCCC[C@@H]1SC[C@@H]2NC(=O)N[C@@H]21)NC(=O)[C@@H](N)CC(N)=O)C(C)C)C(C)C)C(=O)N[C@@H](C)C(=O)N[C@@H](CCC(N)=O)C(=O)N[C@@H](CCCCN)C(=O)N[C@H](C(=O)N[C@@H](C)C(=O)N[C@@H](CCCNC(=N)N)C(=O)N[C@H](C(=O)O)[C@@H](C)O)C(C)C

The remaining lines, values behind:

Structure (SMILES)	Activity [1]	Activity [2]	Activity [3]	Drug uptake [4]	fold change (FC) [5]	fold change (FC) [6]
CC(C)C[C@H](NC(=O)[C@H](CC(=O)O)NC(=O)CNC(=O)[C@H](CCCNC(=N)N)NC(=O)[C@H](CC(C)C)NC(=O)[C@H](CC(N)=O)NC(=O)[C@@H]1CCCN1C(=O)[C@@H](NC(=O)[C@H](CCCCNC(=O)CCCC[C@@H]1SC[C@@H]2NC(=O)N[C@@H]21)NC(=O)[C@H](CC(N)=O)NC(=O)CN1CCN(CC(=O)O)CCN(CC(=O)O)CCN(CC(=O)O)CC1)C(C)C)C(=O)N[C@@H](CCC(N)=O)C(=O)N[C@H](C(=O)N[C@@H](CC(C)C)C(=O)N[C@@H](C)C(=O)N[C@@H](CCC(N)=O)C(=O)N[C@@H](CCCCN)C(=O)N[C@H](C(=O)N[C@@H](C)C(=O)N[C@@H](CCCNC(=N)N)C(=O)N[C@H](C(=O)O)[C@@H](C)O)C(C)C)C(C)C	inactive	inactive	inactive	Not Active	–	–
CC(=O)N[C@@H](CC(N)=O)C(=O)N[C@@H](CCCCNC(=O)CCCC[C@@H]1SC[C@@H]2NC(=O)N[C@@H]21)C(=O)N[C@H](C(=O)N1CCC[C@H]1C(=O)N[C@@H](CC(N)=O)C(=O)N[C@@H](CC(C)C)C(=O)N[C@@H](CCCNC(=N)N)C(=O)NCC(=O)N[C@@H](CC(=O)O)C(=O)N[C@@H](CC(C)C)C(=O)N[C@@H](CCC(N)=O)C(=O)N[C@H](C(=O)N[C@@H](CC(C)C)C(=O)N[C@@H](C)C(=O)N[C@@H](CCC(N)=O)C(=O)N[C@@H](CCCCN)C(=O)N[C@H](C(=O)N[C@@H](C)C(=O)N[C@@H](CCCNC(=N)N)C(=O)N[C@H](C(N)=O)[C@@H](C)O)C(C)C)C(C)C)C(C)C	–	–	–	Not Active	1.25	0.87
CC(=O)N(C(=O)CN(CCN(CCN(CC(=O)O)CC(=O)O)CC(=O)O)CC(=O)O)[C@@H](CC(N)=O)C(=O)N[C@@H](CCCCNC(=O)CCCC[C@@H]1SC[C@@H]2NC(=O)N[C@@H]21)C(=O)N[C@H](C(=O)N1CCC[C@H]1C(=O)N[C@@H](CC(N)=O)C(=O)N[C@@H](CC(C)C)C(=O)N[C@@H](CCCNC(=N)N)C(=O)NCC(=O)N[C@@H](CC(=O)O)C(=O)N[C@@H](CC(C)C)C(=O)N[C@@H](CCC(N)=O)C(=O)N[C@H](C(=O)N[C@@H](CC(C)C)C(=O)N[C@@H](C)C(=O)N[C@@H](CCC(N)=O)C(=O)N[C@@H](CCCCN)C(=O)N[C@H](C(=O)N[C@@H](C)C(=O)N[C@@H](CCCNC(=N)N)C(=O)N[C@H](C(=O)O)[C@@H](C)O)C(C)C)C(C)C)C(C)C	–	–	–	Not Active	1.48	1.05
CC(C)C[C@H](NC(=O)[C@H](CC(=O)O)NC(=O)CNC(=O)[C@H](CCCNC(=N)N)NC(=O)[C@H](CC(C)C)NC(=O)[C@H](CC(N)=O)NC(=O)[C@@H]1CCCN1C(=O)[C@@H](NC(=O)[C@H](CCCCNC(=O)CCCC[C@@H]1SC[C@@H]2NC(=O)N[C@@H]21)NC(=O)[C@@H](N)CC(N)=O)C(C)C)C(=O)N[C@@H](CCC(N)=O)C(=O)N[C@H](C(=O)N[C@@H](CC(C)C)C(=O)N[C@@H](C)C(=O)N[C@@H](CCC(N)=O)C(=O)N(C)[C@@H](CCCCN)C(=O)N[C@H](C(=O)N[C@@H](C)C(=O)N[C@@H](CCCNC(=N)N)C(=O)N[C@H](C(=O)O)[C@@H](C)O)C(C)C)C(C)C	–	–	–	Not Active	0.37	0.89
CC(C)C[C@H](NC(=O)[C@H](CC(=O)O)NC(=O)CNC(=O)[C@H](CCCNC(=N)N)NC(=O)[C@H](CC(C)C)NC(=O)[C@H](CC(N)=O)NC(=O)[C@@H]1CCCN1C(=O)[C@@H](NC(=O)[C@H](CCCCNC(=O)CCCC[C@@H]1SC[C@@H]2NC(=O)N[C@@H]21)NC(=O)[C@@H](N)CC(N)=O)C(C)C)C(=O)N[C@@H](CCC(N)=O)C(=O)N[C@H](C(=O)N[C@@H](CC(C)C)C(=O)N[C@@H](C)C(=O)N[C@@H](CCC(N)=O)C(=O)N[C@@H](CCN)C(=O)N[C@H](C(=O)N[C@@H](C)C(=O)N[C@@H](CCCNC(=N)N)C(=O)N[C@H](C(=O)O)[C@@H](C)O)C(C)C)C(C)C	–	–	–	Not Active	1	0.86
CC(C)C[C@H](NC(=O)[C@H](CC(=O)O)NC(=O)CNC(=O)[C@H](CCCNC(=N)N)NC(=O)[C@H](CC(C)C)NC(=O)[C@H](CC(N)=O)NC(=O)[C@@H]1CCCN1C(=O)[C@@H](NC(=O)[C@H](CCCCNC(=O)CCCC[C@@H]1SC[C@@H]2NC(=O)N[C@@H]21)NC(=O)[C@@H](N)CC(N)=O)C(C)C)C(=O)N[C@@H](CCC(N)=O)C(=O)N[C@H](C(=O)N[C@@H](CC(C)C)C(=O)N[C@@H](C)C(=O)N[C@@H](CCC(N)=O)C(=O)N[C@@H](CCCN)C(=O)N[C@H](C(=O)N[C@@H](C)C(=O)N[C@@H](CCCNC(=N)N)C(=O)N[C@H](C(=O)O)[C@@H](C)O)C(C)C)C(C)C	–	–	–	Not Active	1.12	0.86
